Data as given in patent publication US20150011483A1, “Inhibition of HIV-1 Infection by Potent Metallocene Conjugated Peptide Through Conformational Entrapment of Envelope GP120” (priority 2007, published 2015).
Read-outs that look alike come from different tables or passages of the source.

Legend:
HIV-1 strain BaL [1] = experiment: Inhibition of HIV-1 BaL infection of P4-CCR5 cells (whole virus assay); type: cell-based
Description: Infectivity remaining is expressed relative to mock-treated, HIV-1-infected cells.

HIV-1 strain BaL [2] = experiment: Combination of HNG-156 and cyanovirin-N against HIV-1 BaL infection of P4-CCR5 cells; type: cell-based; details: for IC50, viral infectivity inhibition: HIV-1 BaL, P4-CCR5 cells, combination at constant ratio 1:8.2 by weight, plotted against first-named component
Description: Dextran sulfate (DS) was used as a comparative. […] Combination Indexes (CIs) were calculated using the CalcuSyn software. […] CI values were calculated for 50, 75, and 90% HIV inhibition.

HIV-1 strain BaL [3] = details: P4-CCR5 cells (Gopi et al., 2008); read-out: IC50, inhibition of infection by HIV-1 BaL; cited from earlier work
P4-CCR5 cells [4] = details: at concentrations corresponding to IC50 values; cited from earlier work
HIV-1 YU2 gp120 = target: T1, HIV-1 YU2 gp120 (Human immunodeficiency virus type 1 group M subtype B, UniProt P35961); experiment: SPR direct binding to immobilized YU2 gp120
T1 construct: made in house; host or cells: Drosophila S2 cells
Description: All surface plasmon resonance experiments (SPR) were performed on a BIA3000 optical biosensor (Biocore, Inc., Uppsala, Sweden). […] For direct binding experiments, YU2 gp120 was immobilized on the surface (˜4000RU); peptide analytes in PBS buffer were passed over the surface at a flow rate of 50 μL/min. with 5 minute association phase and 5 minute dissociation phase. […] The indicated analytes were passed over the surfaces at a flow rate of 50 μL/minute, with 2.5 minute association phase and 2.5 minute dissociation phase.
Data analysis was performed using BIAEvaluation® 4.0 software (Biacore Inc., NJ). The responses of a buffer injection and responses from the control surface to which the mAb 2B6R was immobilized, were subtracted to account for nonspecific binding. Experimental data were fitted to a simple 1:1 Langmuir binding model with a parameter included for mass transport. The average kinetic parameters (association [ka] and dissociation [kd] rates) generated from a minimum of four datasets were used to define equilibrium association (KA) and dissociation constants (KD).

HIV-1 92UG037-08 gp120 = experiment: SPR direct binding to immobilized 92UG037-08 gp120; details: HIV-1 env 92UG037-08 (A)
[5] = target: T2, YU2 gp120 binding to sCD4 (Human immunodeficiency virus type 1 group M subtype B, UniProt P35961); experiment: SPR competition: inhibition of YU2 gp120 binding to immobilized sCD4; design: species or system HIV-1; details: 100 nM YU2 gp120, peptide 10 to 600 nM
T2 construct: made in house; host or cells: gp120: Drosophila S2 cells; sCD4: CHO cells
Description: (§1) In one experiment, antibodies b6, b12, or F105 were immobilized on a biosensor CM5 chip.

YU2 gp120 binding to 17b = target: T3, YU2 gp120 binding to 17b (Human immunodeficiency virus type 1 group M subtype B, UniProt P35961); experiment: SPR competition: inhibition of YU2 gp120 binding to immobilized 17b; design: species or system HIV-1; details: 100 nM YU2 gp120, peptide 10 to 600 nM
T3 construct: made in house; host or cells: gp120: Drosophila S2 cells
Description: as §1

gp120 binding to 2G12 = target: T4, gp120 binding to 2G12 (Human immunodeficiency virus type 1 group M subtype B, UniProt P35961); experiment: Effect on gp120 binding to antibody 2G12; design: species or system HIV-1
T4 construct: with a constant concentration (100 nM) of YU2 gp120

gp120 binding to sCD4 = target: T5, gp120 binding to sCD4 (Human immunodeficiency virus type 1 group M subtype B, UniProt P35961); design: species or system HIV-1; details: in the presence of HNG-156
T5 construct: made in house; host or cells: sCD4: CHO cells; gp120 (if YU2): Drosophila S2 cells

P4-CCR5 cells [6] = experiment: In vitro cytotoxicity, MTT assay; type: cell-based; details: concentrations as high as 0.1 mg/ml, 2 hours
Description: P4-CCR5 cells were seeded at a density of 4×10^4 cells/well in a 96 well plate approximately 18 hours prior to experiment. […] The cells were subsequently washed and assessed for viability using a 3-(4,5-dimethylthiazol-2-yl)-2,5-diphenyltetrazolium bromide (MTT) assay of viability (previously described in Krebs et al. (1999). Concentrations were tested in triplicate in two independent assays.

sCD4 = target: T6, sCD4 (Homo sapiens, UniProt P01730); experiment: SPR direct binding of peptide to immobilized sCD4
T6 construct: made in house; host or cells: CHO cells

17b = experiment: SPR direct binding of peptide to immobilized 17b

dextran sulfate [DS]
IC50 (HIV-1 strain BaL [1]; result of one trial): 9800 nM
IC50, inhibition of infection by HIV-1 BaL (HIV-1 strain BaL [1]; result of one trial): 4.9 µg/mL
IC50, viral infectivity inhibition (HIV-1 strain BaL [2]): 0.900 microgram/milliter

CC[C@H](C)[C@H](NC(=O)[C@@H](N)CCCNC(=N)N)C(=O)N[C@@H](CC(N)=O)C(=O)N[C@@H](CC(N)=O)C(=O)N[C@H](C(=O)N1CCC[C@H]1C(=O)N[C@@H](Cc1c[nH]c2ccccc12)C(=O)N[C@@H](CO)C(=O)N[C@@H](CCC(=O)O)C(=O)N[C@@H](C)C(=O)N[C@@H](CCSC)C(=O)N[C@@H](CCSC)C(=O)O)[C@@H](C)CC [12p1, reference compound]
IC50 (HIV-1 strain BaL [3]): 48000 nM

RINNIPWSEAMM [HNG-124]
IC50 (HIV-1 strain BaL [3]): 418 nM
impact on cell viability (P4-CCR5 cells [4]): no or minimal impact

RINNIPWSEAMM [HNG-137]
IC50 (HIV-1 strain BaL [3]): 610 nM
impact on cell viability (P4-CCR5 cells [4]): no or minimal impact

CC[C@H](C)[C@H](NC(=O)[C@@H](N)CCCNC(=N)N)C(=O)N[C@@H](CC(N)=O)C(=O)N[C@@H](CC(N)=O)C(=O)N[C@H](C(=O)N1C[C@@H](n2cc([C]34[CH]5[CH]6[CH]7[CH]3[Fe]6754389%10[CH]4[CH]3[CH]8[CH]9[CH]4%10)nn2)C[C@H]1C(=O)N[C@@H](Cc1c[nH]c2ccccc12)C(=O)N[C@@H](CO)C(=O)N[C@@H](CCC(=O)O)C(=O)N[C@@H](C)C(=O)N[C@@H](CCSC)C(=O)N[C@@H](CCSC)C(N)=O)[C@@H](C)CC (some centres unmarked) [HNG-156]
kd (HIV-1 YU2 gp120; HIV-1 env YU2, Table 1): 0.000955 s⁻¹
affinity higher than HNG-105's affinity (HIV-1 YU2 gp120; YU2 gp120): roughly 3 fold
Kd (HIV-1 92UG037-08 gp120): 16.3 nM
ka (HIV-1 92UG037-08 gp120): 106000 M⁻¹ s⁻¹
inhibition of binding of gp120 to sCD4 surface [5]: complete inhibition
inhibition of binding of gp120 to 17b surface (YU2 gp120 binding to 17b): complete inhibition
effect on the binding of 2G12 (gp120 binding to 2G12): did not show any effect
reduction of the affinity of CD4 (gp120 binding to sCD4): reduced by two orders of magnitude
more effective than HNG-105 in inhibiting infection (HIV-1 strain BaL [1]; HIV-1 BaL): approximately 15 fold
effect on P4-CCR5 cell viability (P4-CCR5 cells [6]): no effect
IC50, viral infectivity inhibition (HIV-1 strain BaL [2]): 0.213 microgram/milliter
direct binding to sCD4 (sCD4): no direct binding
direct binding to 17b (17b): no direct binding

RINNIPWSEAMM [HNG-113]
IC50 (HIV-1 strain BaL [3]): 156 nM
impact on cell viability (P4-CCR5 cells [4]): no or minimal impact

B1: Cyanovirin-N: 11 kD protein originally isolated from the cyanobacteria Nostoc ellipsosporum, binds gp120 (protein, listed as Nostoc ellipsosporum)
chain: LGKFSQTCYNSAIQGSVLTSTCERTNGGYNTSSIDLNSVIENVDGSLKWQPSNFIETCRNTQLAGSSELAAECKTRAQQFVSTKINLDDHIANIDGTLKYE
modifications: DISULFID (8)..(22) disulfide bond
improvement in the efficacy of CV-N in viral inhibition upon addition of HNG-156 (HIV-1 strain BaL [2]): ~10 fold
IC50, viral infectivity inhibition (HIV-1 strain BaL [2]): 0.026 microgram/milliter
EC50 Dm (HIV-1 strain BaL [2]; dose at which 50% neutralization occurs): 0.045 µg/mL
